Experimental data from article PMC6593445, “Promiscuous terpene synthases from Prunella vulgaris highlight the importance of substrate and compartment switching in terpene synthase evolution” (The New Phytologist, 2019).

What was measured:
Experiment in all cases: in vitro TPS assay, GC-MS of products
Assay type in all cases: biochemical
Settings in all cases: 10 mM MgCl2, 100 mM KCl, 5 mM DTT, 50 mM HEPES pH 7.2, 30 °C, 4 h
[1] = target: T1, PvTPS5 (Prunella vulgaris, UniProt A0A3S8D7W9)
T1 construct: full length, cytosolic (no transit peptide); pET28b+, E. coli C41, Ni-NTA purified; TPS-a subfamily
T1 sequence (A0A3S8D7W9 1-555): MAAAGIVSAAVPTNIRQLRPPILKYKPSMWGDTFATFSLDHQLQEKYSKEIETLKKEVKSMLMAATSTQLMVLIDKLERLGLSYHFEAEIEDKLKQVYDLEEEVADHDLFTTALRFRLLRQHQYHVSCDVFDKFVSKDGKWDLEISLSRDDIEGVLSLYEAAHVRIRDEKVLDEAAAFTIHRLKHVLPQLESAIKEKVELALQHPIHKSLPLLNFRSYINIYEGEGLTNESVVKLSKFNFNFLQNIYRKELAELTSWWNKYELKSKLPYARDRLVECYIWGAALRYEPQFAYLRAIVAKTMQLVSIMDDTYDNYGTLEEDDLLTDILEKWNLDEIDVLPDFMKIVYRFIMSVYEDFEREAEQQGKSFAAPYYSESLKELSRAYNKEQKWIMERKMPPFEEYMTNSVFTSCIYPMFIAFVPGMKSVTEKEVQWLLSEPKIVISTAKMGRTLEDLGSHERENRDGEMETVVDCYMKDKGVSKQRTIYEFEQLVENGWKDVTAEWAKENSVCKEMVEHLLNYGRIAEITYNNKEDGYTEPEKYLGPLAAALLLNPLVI

[2] = target: T2, PvHVS (Prunella vulgaris, UniProt A0A3Q8J789)
T2 construct: N-terminal truncation removing 43 aa predicted plastid transit peptide; pET28b+, E. coli C41, Ni-NTA purified; TPS-a diterpene synthase
T2 sequence (A0A3Q8J789 44-599): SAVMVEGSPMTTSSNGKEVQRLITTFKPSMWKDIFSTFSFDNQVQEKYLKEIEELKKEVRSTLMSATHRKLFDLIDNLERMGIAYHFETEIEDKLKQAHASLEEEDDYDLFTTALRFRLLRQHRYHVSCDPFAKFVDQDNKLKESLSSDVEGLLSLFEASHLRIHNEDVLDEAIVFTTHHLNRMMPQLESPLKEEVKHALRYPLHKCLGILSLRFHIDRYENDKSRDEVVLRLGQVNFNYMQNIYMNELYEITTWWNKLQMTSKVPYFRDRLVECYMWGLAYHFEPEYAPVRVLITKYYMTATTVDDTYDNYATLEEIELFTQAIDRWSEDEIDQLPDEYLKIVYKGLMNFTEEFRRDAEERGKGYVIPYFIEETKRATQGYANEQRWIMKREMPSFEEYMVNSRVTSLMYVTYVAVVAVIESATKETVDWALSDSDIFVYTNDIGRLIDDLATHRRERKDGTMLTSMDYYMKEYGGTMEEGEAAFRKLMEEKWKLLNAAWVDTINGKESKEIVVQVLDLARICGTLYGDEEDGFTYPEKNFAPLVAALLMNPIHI

[3] = target: T3, PvTPS4 (Prunella vulgaris, UniProt A0A3S8D7W5)
T3 construct: full length, cytosolic (no transit peptide); pET28b+, E. coli C41, Ni-NTA purified; TPS-a subfamily

[4] = target: T4, PvTPS2 (Prunella vulgaris, UniProt A0A3S8D7T7)
T4 construct: N-terminal truncation removing 48 aa predicted plastid transit peptide; pET28b+, E. coli C41, Ni-NTA purified; TPS-a subfamily
T4 sequence (A0A3S8D7T7 49-597): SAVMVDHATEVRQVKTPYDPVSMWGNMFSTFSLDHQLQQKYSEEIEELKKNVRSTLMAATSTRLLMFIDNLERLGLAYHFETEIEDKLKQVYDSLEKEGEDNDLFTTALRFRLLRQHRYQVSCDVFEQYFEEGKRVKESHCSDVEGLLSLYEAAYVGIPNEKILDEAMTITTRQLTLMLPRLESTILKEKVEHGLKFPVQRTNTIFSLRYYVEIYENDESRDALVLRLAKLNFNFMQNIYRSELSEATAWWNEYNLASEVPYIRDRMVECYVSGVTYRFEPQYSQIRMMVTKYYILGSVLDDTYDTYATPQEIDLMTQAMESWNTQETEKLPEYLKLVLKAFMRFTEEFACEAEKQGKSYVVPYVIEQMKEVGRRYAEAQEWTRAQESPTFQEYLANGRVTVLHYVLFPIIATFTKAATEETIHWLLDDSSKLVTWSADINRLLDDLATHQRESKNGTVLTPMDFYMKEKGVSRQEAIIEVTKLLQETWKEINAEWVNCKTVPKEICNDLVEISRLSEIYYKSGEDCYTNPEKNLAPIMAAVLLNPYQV

T3 sequence (A0A3S8D7W5 entry or part of it): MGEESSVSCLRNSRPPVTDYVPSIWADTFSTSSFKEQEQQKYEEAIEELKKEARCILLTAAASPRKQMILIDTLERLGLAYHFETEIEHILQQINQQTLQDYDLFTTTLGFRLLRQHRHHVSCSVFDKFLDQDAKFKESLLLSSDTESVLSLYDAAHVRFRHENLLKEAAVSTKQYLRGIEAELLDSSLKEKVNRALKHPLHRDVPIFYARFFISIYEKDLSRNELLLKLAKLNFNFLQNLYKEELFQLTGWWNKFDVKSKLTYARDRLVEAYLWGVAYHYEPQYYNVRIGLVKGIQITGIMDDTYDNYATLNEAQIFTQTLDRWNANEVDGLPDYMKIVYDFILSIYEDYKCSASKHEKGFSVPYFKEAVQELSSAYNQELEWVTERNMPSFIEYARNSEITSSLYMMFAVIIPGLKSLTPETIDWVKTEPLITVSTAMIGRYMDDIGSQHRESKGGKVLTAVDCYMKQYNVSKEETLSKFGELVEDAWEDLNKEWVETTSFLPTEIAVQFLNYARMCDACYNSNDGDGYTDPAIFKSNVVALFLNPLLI

SMILES | in vitro TPS assay, GC-MS of products [1] | in vitro TPS assay, GC-MS of products [2] | in vitro TPS assay, GC-MS of products [3] | in vitro TPS assay, GC-MS of products [4]
CC(C)=CCC/C(C)=C/CC/C(C)=C/COP(=O)(O)OP(=O)(O)O [(E,E)‐FPP] | All four enzymes were active against (E,E)‐FPP both in vitro, and in N. benthamiana | All four enzymes were active against (E,E)‐FPP both in vitro, and in N. benthamiana | All four enzymes were active against (E,E)‐FPP both in vitro, and in N. benthamiana | All four enzymes were active against (E,E)‐FPP both in vitro, and in N. benthamiana
CC(C)=CCC/C(C)=C/CC/C(C)=C/CC/C(C)=C/COP(=O)(O)OP(=O)(O)O [GGPP] |  | Only PvTPS2 and PvHVS were active in vitro and in N. benthamiana against GGPP |  | Only PvTPS2 and PvHVS were active in vitro and in N. benthamiana against GGPP
CC(C)=CCC/C(C)=C\COP(=O)(O)OP(=O)(O)O [NPP] | all four enzymes were found to catalyse cyclisation of NPP |  | all four enzymes were found to catalyse cyclisation of NPP | 
